In US8603483B2, “Anti-integrin immunoconjugates, methods and uses” (Janssen Biotech, Inc., priority 2004, dated 2013):
Each block holds one compound with its values, some of them ahead of it.

Columns and labels:
[1] = system: A375.S2 human melanoma xenografts; assay: Advanced s.c. A375.S2 melanoma xenograft in athymic rats, second experiment (FIG. 7); format: in vivo, rat; conditions: i.v., days 14, 16, 18, 23, 31
Description: FIG. 7 is a graph showing the growth of human A375.S2 melanoma cells in athymic nude rats. On day 14, when the average tumor volumes reached 250 mm^3, the animals were randomly grouped and the first dose was administered. All animals were sacrificed on day 35. Tumor volumes were expressed as mean+/−SEM (n=9 or 10). The arrows indicate the days of intravenous drug administration.
(§1) The efficacy of CNTO 364 compared to CNTO95 against advanced s.c. A375.S2 human melanoma cells was investigated. CNTO 95-DM1 was prepared by ImmunoGen, Inc. Lot #1716-74B, stock concentration: 2.59 mg/ml. 5 mg/kg of CNTO 95-DM1 is equivalent to 74 μg/kg of DM1. CNTO 95 was from Centocor, Lot #5380-027, stock concentration=20 mg/ml. Human IgG-DM1: ChromPure human IgG was from Jackson ImmunoResearch Laboratories. Human IgG-DM1 was prepared by ImmunoGen, Lot #1762-50, stock concentration 2.8 mg/ml. 5 mg/kg of this conjugate is equivalent to 76 μg/kg of DM1. Maytansine: ImmunoGen, Lot #1710-121, stock concentration=16.38 μg/ml in PBS, pH 6.5. The stock solution of Maytansine was diluted with PBS to 15 and 7.5 μg/ml. PBS: ImmunoGen, pH 6.5. A375.S2 human melanoma cells were purchased from ATCC and subpassaged and stored in frozen aliquots at Centocor Cell Biology Services.
In a second experiment in rats, the average tumor volumes reached to 250 mm^3 on day 14. […]

[2] = system: A375.S2 human melanoma tumor; assay: A375.S2 human melanoma xenograft in nude mice, CNTO 95 from day 3; format: in vivo, mouse; conditions: 10 mg/kg i.p. three times per week
Description: FIG. 4 is a graph showing the change volume over time of a human melanoma tumor in nude mice and the effect of administering CNTO 95. Mice were inoculated subcutaneously with A375.S2 cells (3×10^6), and dosing with CNTO 95 or control was initiated three days later. Mice were treated with CNTO 95 or vehicle three times per week at a dose of 10 mg/kg i.p. Each data point is the mean tumor volume from 10 tumor-bearing animals (±SEM).
At day 26, CNTO 95 inhibited tumor growth by approximately 80% compared to tumors from control-treated animals.

[3] = system: A375.S2 human melanoma tumor; assay: A375.S2 human melanoma xenograft in nude rats, weekly CNTO 95; format: in vivo, rat; conditions: 10 mg/kg i.v. weekly, day 46, p=0.0007
Description: FIG. 5 is a graph showing the change volume over time of a human melanoma tumor in nude rats and the effect of administering CNTO 95. Rats were inoculated subcutaneously with A375.S2 cells (3×106), and therapy with CNTO 95 or control was initiated three days later. Rats were treated with CNTO 95 or vehicle once per week at a dose of 10 mg/kg i.v. Each data point is the mean tumor volume from 9 tumor-bearing animals (±SEM).
For rat studies, female nude rats, aged 6-7 weeks, were purchased from Harlan. Twenty rats were inoculated s.c. with A375.S2 cells (3×10^6) in the flank region (day 1). On day 4, rats were randomly assigned to 2 groups. One group was injected i.v. with CNTO 95 (10 mg/kg in PBS), while the other group received an isotype-matched control IgG (10 mg/kg). Dosing was continued weekly thereafter until day 46 (total of 6 doses). Tumors were measured by calipers twice a week and tumor volumes calculated by the formula (length×width2)/2. Body weights were also recorded weekly.
In the rat, CNTO 95 is capable of blocking both rat angiogenic integrins and human tumor cell-expressed integrins. Weekly treatment of tumor-bearing nude rats with CNTO 95 at 10 mg/kg reduced tumor growth compared to the isotype-matched human IgG control MAb (FIG. 5).

[4] = system: tumor and endothelial cells; assay: In vitro functional assays on tumor and endothelial cells (summary); format: cell-based
Description: In addition, CNTO 95 inhibited angiogenesis and tumor growth in vivo.

angiogenesis [5] = assay: Rat Matrigel angiogenesis model; format: in vivo; conditions: stimulated by bFGF and M21 melanoma cells
angiogenesis [6] = assay: Primate angiogenesis model; format: in vivo, cynomulgus monkeys; conditions: stimulated by bFGF
[7] = system: A375.S2 human melanoma cells; assay: Advanced s.c. A375.S2 melanoma xenograft, first experiment (FIG. 6); format: in vivo, athymic nude rats; conditions: 10 mg/kg i.v., tumors 250-300 mm^3 at start
Description: as §1
Nine-week-old athymic nude rats were subcutaneously inoculated with A375.S2 human melanoma cells. On day 14, when average tumor volumes reached to 250-300 mm^3, animals were randomized to groups of 9/10 and treatment initiated. […] The arrows indicate intravenous drug administration.

[8] = system: HT29 human colon carcinoma cells; assay: ATPLite cytotoxicity, HT29 cells, 96 hrs; format: cell-based; conditions: HT29, 96 hrs
Description: (§2) Human HT29 human colon carcinoma and human non-small cell lung carcinoma cells A549 (ATCC) were cultured in αMEM supplemented with 10% FBS at 37° C. in the presence of 5% CO2. Cells were seeded into white 96-well tissue culture plates (5000 cells/well) in culture medium and incubated for 16 hrs. Serial dilutions of immunoconjugates were added to each appropraite wells (0-20 μg/ml). Tissue culture plates were incubated at 37° C. for 96 hrs. ATPLIte assay was performed acording manufacturer's instruction. Data was analyzed with GraphPad Prism software using non-liner regression (Table 8) to determine the concentration at half maximal cell number as measured by luminosity.

[9] = system: A549 human non-small cell lung carcinoma cells; assay: ATPLite cytotoxicity, A549 cells, 96 hrs; format: cell-based; conditions: A549, 96 hrs
Description: as §2

HT29 human colon tumor = assay: HT29 colon carcinoma xenograft in athymic rats, comparison of conjugate linkages; format: in vivo, rat
Description: An advanced tumor model using subcutaneously implanted HT29 human colon tumor-derived cells in immunocompromised rats was chosen to examine tolerability and potency of various linkages used to prepare immunoconjugates of CNTO 95.
CNTO 95-SPP-DM1 (CNTO 364), CNTO 95-SSNPB-DM4 (CNTO 365), CNTO 95-SSNPP-DM4 (CNTO 366), and the Mab F105 equivalents of these were prepared by ImmunoGen (Cambridge, Mass.). One hundred female athymic rats (4-6 weeks of age) were obtained from Harlan Laboratories.
Human HT29 (ATCC) were cultured in αMEM supplemented with 10% FBS at 37° C. in the presence of 5% CO2. Cells were prepared at a concentration of twenty-five million cells per ml in serum free αMEM for inoculation. Female athymic rats were inoculated with 5×10^6 HT29 cells subcutaneously (0.2 ml of 25×10^6 cells/ml) on the rear flank area (dorsal side, approximately 0.5 inches caudal to the last rib and 0.5 inches from the backbone). All rats were monitored twice per week for the appearance of tumor. The animals were stratified into 13 groups, 6 animals per group based on a mean tumor volume for each group of approximately 250 mm^3. Doses of immunoconjugates were calculated based on the contents of DM1 or DM4 in each conjugate. The L and H represent 175 and 350 μg/kg of DM1 or DM4, respectively. […] All measurements are expressed as the group mean+/−SEM (n=6).

αvβ5 = αvβ5 (Homo sapiens, UniProt P06756, V783I); assay: 125-I saturation binding on αvβ5 coated plates
Description: The binding affinity values for purified integrins were compared to binding to receptors expressed on various cell lines using 125-I CNTO 95. A375S2 and M21 cells express both αvβ3 and αvβ5, HT-29 cells express αvβ5. For comparison, other Mabs capable of binding integrins were used. The Kd was calculated from a saturation binding curve in each case using multiple replicates of multiple lots of antibody.

alphaVbeta3 = alphaVbeta3 (Homo sapiens, UniProt P05106+P06756, V783I); assay: ELISA binding of purified hybridoma antibodies to alphaVbeta3; conditions: ELISA on alphaVbeta3
Description: Human placenta (disrupted using a meat grinder) or M21 human melanoma cells expressing the αVβ3 integrin were extracted with OTG (Octylthioglucoside Pierce) in buffered saline as described (WO0212501). These preparations were emulsified with an equal volume of complete Freund's adjuvant and used to immunize 15 to 17 week old surgically castrated male mouse (GenPharm, Foster City, Calif.) on days 0 and 14 and in incomplete Freunds on days 28, 48, and 56. Three days later splenocytes were harvested from a mouse showing a titer of 1:1280 against alphaVbeta3 using a solid phase EIA format. Fusion was carried out at a 1:1 ratio of murine myeloma cells (SP2/0) to viable spleen cells. Hybridoma supernatants were screened using the EIA microplate assay or EIA capture assay and selected antibody producing lines expanded and retested for the desired properties.
ELISA analysis confirmed that purified antibody from two hybridomas, C371A (also called Mab CNTO 95) and C372A, bind alphaVbeta3 in a concentration-dependent manner. Fifty percent binding is achieved at 0.07 and 0.7 μg/mL for C372A and CNTO 95 respectively.

αvβ5, sequence (P06756 31-889 V783I limits assumed): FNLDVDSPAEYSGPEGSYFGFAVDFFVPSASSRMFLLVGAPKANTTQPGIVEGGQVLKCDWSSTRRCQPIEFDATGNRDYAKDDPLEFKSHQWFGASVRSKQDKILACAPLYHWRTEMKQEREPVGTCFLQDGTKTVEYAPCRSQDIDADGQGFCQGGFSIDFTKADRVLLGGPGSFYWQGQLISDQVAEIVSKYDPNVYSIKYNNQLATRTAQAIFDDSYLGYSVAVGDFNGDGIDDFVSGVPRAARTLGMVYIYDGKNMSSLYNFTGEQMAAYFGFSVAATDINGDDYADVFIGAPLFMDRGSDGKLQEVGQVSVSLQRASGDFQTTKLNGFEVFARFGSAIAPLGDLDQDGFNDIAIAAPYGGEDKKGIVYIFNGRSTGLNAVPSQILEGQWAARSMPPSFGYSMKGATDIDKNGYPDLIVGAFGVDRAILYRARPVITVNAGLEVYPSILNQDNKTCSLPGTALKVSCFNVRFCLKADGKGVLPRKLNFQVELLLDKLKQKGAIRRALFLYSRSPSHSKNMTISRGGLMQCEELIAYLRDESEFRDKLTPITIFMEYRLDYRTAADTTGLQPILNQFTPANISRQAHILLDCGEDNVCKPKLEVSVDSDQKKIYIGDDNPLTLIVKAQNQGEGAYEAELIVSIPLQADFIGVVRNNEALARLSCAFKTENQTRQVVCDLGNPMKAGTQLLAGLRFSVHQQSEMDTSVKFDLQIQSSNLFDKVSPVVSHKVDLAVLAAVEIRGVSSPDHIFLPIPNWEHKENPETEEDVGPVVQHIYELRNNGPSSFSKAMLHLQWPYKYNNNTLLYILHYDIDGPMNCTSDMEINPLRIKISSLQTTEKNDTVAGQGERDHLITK
αvβ5, sequence (P06756 891-1048 limits assumed): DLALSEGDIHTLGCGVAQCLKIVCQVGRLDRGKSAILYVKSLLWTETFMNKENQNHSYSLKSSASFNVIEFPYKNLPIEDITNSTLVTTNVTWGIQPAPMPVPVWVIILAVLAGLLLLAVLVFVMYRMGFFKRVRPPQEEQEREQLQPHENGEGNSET
αvβ5, sequence (P18084 24-799 partner): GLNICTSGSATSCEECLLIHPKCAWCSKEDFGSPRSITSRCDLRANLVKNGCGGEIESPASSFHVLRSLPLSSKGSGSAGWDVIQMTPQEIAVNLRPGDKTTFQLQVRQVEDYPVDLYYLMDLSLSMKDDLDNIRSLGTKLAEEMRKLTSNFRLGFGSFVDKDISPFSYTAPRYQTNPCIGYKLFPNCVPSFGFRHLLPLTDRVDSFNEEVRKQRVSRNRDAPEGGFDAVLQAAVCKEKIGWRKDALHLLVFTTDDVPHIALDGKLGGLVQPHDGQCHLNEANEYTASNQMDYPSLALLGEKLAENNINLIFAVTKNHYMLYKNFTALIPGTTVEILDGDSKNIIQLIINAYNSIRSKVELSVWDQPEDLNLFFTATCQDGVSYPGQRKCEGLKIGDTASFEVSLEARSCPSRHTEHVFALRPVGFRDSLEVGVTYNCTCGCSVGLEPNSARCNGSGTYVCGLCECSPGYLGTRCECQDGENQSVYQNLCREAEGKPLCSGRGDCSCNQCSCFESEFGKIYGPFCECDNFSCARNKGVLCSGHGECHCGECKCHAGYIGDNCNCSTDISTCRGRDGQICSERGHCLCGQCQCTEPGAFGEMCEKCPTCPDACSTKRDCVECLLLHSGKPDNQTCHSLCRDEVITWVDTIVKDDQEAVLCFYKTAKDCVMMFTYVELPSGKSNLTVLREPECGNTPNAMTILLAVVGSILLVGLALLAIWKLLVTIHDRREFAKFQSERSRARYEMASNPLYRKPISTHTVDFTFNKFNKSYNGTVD
alphaVbeta3, sequence (P06756 31-889 V783I limits assumed): as the sequence (P06756 31-889 V783I limits assumed) above
alphaVbeta3, sequence (P06756 891-1048 limits assumed): as the sequence (P06756 891-1048 limits assumed) above
alphaVbeta3, sequence (P05106 27-788): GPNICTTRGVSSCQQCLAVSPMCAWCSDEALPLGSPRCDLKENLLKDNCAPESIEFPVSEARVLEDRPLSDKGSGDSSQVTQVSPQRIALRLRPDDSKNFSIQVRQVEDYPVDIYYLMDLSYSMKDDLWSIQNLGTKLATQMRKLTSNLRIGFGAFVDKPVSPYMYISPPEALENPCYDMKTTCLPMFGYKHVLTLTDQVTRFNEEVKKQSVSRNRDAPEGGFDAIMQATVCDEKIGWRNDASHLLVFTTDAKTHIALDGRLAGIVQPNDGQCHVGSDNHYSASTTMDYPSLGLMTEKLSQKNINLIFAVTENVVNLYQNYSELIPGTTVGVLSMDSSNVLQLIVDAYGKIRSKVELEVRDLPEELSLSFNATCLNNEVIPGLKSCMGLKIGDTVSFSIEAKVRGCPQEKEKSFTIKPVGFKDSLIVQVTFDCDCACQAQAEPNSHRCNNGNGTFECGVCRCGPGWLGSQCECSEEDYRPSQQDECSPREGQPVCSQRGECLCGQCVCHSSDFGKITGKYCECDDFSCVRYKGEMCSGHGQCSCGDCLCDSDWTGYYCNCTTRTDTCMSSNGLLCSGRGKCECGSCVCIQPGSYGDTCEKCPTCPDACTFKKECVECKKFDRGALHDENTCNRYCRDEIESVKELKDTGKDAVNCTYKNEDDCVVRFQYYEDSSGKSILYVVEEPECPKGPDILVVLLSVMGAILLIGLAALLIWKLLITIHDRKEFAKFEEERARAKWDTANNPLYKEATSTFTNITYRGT

Compound: COc1cc2cc(c1Cl)N(C)C(=O)C[C@H](OC(=O)[C@H](C)N(C)C(C)=O)[C@]1(C)O[C@H]1[C@H](C)[C@@H]1C[C@@](O)(NC(=O)O1)[C@H](OC)/C=C/C=C(\C)C2 [Maytansine, reference compound]
- effect on xenograft tumors (control compounds) [1]: did not show any significant effects

Compound: CNTO 95: fully human anti-alphaV integrin monoclonal antibody, human variable and IgG1 kappa constant regions
- inhibition of tumor growth compared to control-treated animals ([2]; day 26): approximately 80%
- tumor growth vs control ([2]; day 26, P=0.0005): significantly inhibited growth of tumors
- final tumor size vs isotype-matched control IgG [3]: significant reduction in final tumor size
- effect on adhesion, migration, proliferation and invasion [4]: inhibited adhesion, migration, proliferation and invasion
- effect on angiogenesis (angiogenesis [5]): blocked angiogenesis
- effect on angiogenesis (angiogenesis [6]): blocked angiogenesis
- effect on tumor growth / average tumor volume [7]: had no effect
- effect on xenograft tumors (control compounds) [1]: did not show any significant effects

Compound: CNTO 365: CNTO 95 conjugated to maytansinoid DM4 with SSNPB or SPDB linker; methyl groups 0:2
- EC50, concentration at half maximal cell number [8]: 0.24 µg/mL
- EC50, concentration at half maximal cell number [9]: 0.3 µg/mL
- complete regression, animals out of 6 (HT29 human colon tumor; high dose (350 microgm/kg of DM4), single injection): 4
- regressed preformed colon tumors, animals out of 6 (HT29 human colon tumor; low dose (175 microgm/kg of DM4), Day 7 and Day 21): 2

- binding on αvβ5 coated plates (αvβ5): no binding and no dose-response
Compound: abciximab: other Mab capable of binding integrins, used for comparison

- Fifty percent (maximal) binding concentration (alphaVbeta3): 0.07 µg/mL
Compound: c7E3 IgG: anti-alphaIIbeta3 antibody
